Data reported in the Deep4Chem optical property database.
Values belong to the compound of their own block, whether it stands above or below them.

Assay: photoluminescence quantum yield (fraction); solvent given as SMILES

Compound: Brc1ccc(-c2nc3sc4ccccc4c3s2)cc1
photoluminescence quantum yield (in CS(C)=O): 0.88

Compound: CC(C)(C)c1ccc2c(c1)c1cc(C(C)(C)C)ccc1n2-c1ccccc1-c1nc(-c2ccccc2-n2c3ccc(C(C)(C)C)cc3c3cc(C(C)(C)C)ccc32)nc(-c2ccccc2P(=O)(c2ccccc2)c2ccccc2)n1
photoluminescence quantum yield (in O=P(c1ccccc1)(c1ccccc1)c1ccccc1Oc1ccccc1P(=O)(c1ccccc1)c1ccccc1): 0.45

Compound: C(#Cc1ccccc1)c1ccccc1
photoluminescence quantum yield (in CO): 0.0015 | photoluminescence quantum yield (in ClC(Cl)Cl): 0.003 | photoluminescence quantum yield (in ClCCl): 0.003

Compound: O=c1c2ccccc2sc2ccccc12
photoluminescence quantum yield (in C1CCOC1): 0.012 | photoluminescence quantum yield (in C1COCCO1): 0.015 | photoluminescence quantum yield (in CC#N): 0.066 | photoluminescence quantum yield (in CC(C)=O): 0.024 | photoluminescence quantum yield (in CC(C)O): 0.14 | photoluminescence quantum yield (in CCCCOC(C)=O): 0.0078 | photoluminescence quantum yield (in CO): 0.25 | photoluminescence quantum yield (in OCCO): 0.41 | photoluminescence quantum yield (in c1ccccc1): 0.012

Compound: COc1cc(/C=C/c2nc3ccccc3s2)c(OC)cc1/C=C/c1nc(C)nc(C)n1
photoluminescence quantum yield (in C1CCOC1): 0.94 | photoluminescence quantum yield (in CC#N): 0.86 | photoluminescence quantum yield (in ClC(Cl)Cl): 0.88 | photoluminescence quantum yield (in ClCCl): 0.86

Compound: O=[N+]([O-])c1ccc(C#Cc2ccc3ccccc3c2)cc1
photoluminescence quantum yield (in ClC(Cl)Cl): 0.005 | photoluminescence quantum yield (in ClCCl): 0.006

Compound: CC(C)(C)c1cc(-c2ccc3c(-c4cc(C(C)(C)C)cc(C(C)(C)C)c4)cc4c5cc(-c6cc(C(C)(C)C)cc(C(C)(C)C)c6)ccc5c(-c5cc(C(C)(C)C)cc(C(C)(C)C)c5)cc4c3c2)cc(C(C)(C)C)c1
photoluminescence quantum yield (in ClCCl): 0.609

Compound: COc1ccc(-c2c3ccc([nH]3)c3nc(c(-c4ccc([N+](=O)[O-])cc4)c4ccc([nH]4)c4ccc([nH]4)c(-c4ccc(OC)cc4)c4ccc2o4)C=C3)cc1
photoluminescence quantum yield (in C1CCOC1): 0.013 | photoluminescence quantum yield (in Cc1ccccc1): 0.075 | photoluminescence quantum yield (in c1ccccc1): 0.08

Compound: C(#Cc1ccccc1)C1=Cc2ccc3ccccc3c2NB1c1ccccc1
photoluminescence quantum yield (in C1CCCCC1): 0.72

Compound: O=c1oc2ccc3ccccc3c2nc1-c1ccc(Cl)cc1
photoluminescence quantum yield (in c1ccccc1): 0.478

Compound: N#Cc1nn(-c2ccc(Cl)cc2)nc1N1CCCC1
photoluminescence quantum yield (in CC#N): 0.829

Second part, the compound after the results:

photoluminescence quantum yield (in C1CCOC1): 0.29
Compound: COc1ccccc1C1=[N+]2C(=Cc3c4cc5ccccc5cc4c(-c4ccccc4OC)n3[B-]2(F)F)c2cc3ccccc3cc21

photoluminescence quantum yield (in CN(C)C=O): 1
Compound: CCCCCCCCCCCCN1C(=O)c2ccc3c4ccc5c6c(ccc(c7ccc(c2c37)C1=O)c64)C(=O)N(CCCCCCCCCCCC)C5=O

photoluminescence quantum yield (in ClC(Cl)Cl): 0.91
Compound: CCCCCCn1c2cc(/C=C/c3ccccc3)ccc2c2ccc(/C=C/c3ccccc3)cc21

photoluminescence quantum yield (in C1CCOC1): 0.41 | photoluminescence quantum yield (in ClCCl): 0.38
Compound: Cc1ccc(-c2ccc3ccc4cc(C(C)(C)C)cc5ccc2c3c45)cc1

photoluminescence quantum yield (in C1CCOC1): 0.39
Compound: CCCc1ccc2c(c1)cc1n2B2c3c4c-1cccc4cc1cccc(c31)-c1cc3cc(CCC)ccc3n12

photoluminescence quantum yield (in CC#N): 0.21
Compound: CCN(CC)c1ccc(/C=N/c2cc3nc4ccccc4nc3cc2/N=C/c2ccc(N(CC)CC)cc2O)c(O)c1
